Article PMC9921564, “Novel Indole-Containing Hybrids Derived from Millepachine: Synthesis, Biological Evaluation and Antitumor Mechanism Study” (Molecules, 2023)

What was measured:
[1] = system: L-02 (normal human hepatocytes); assay: CCK-8 cytotoxicity, L-02 normal cells; type: cell-based
Text: A549 (non-small-cell-lung cancer cell line), Caski (human epithelial cervical cancer cell line), HepG2 (human liver carcinoma cell line), MCF-7 (human breast carcinoma cell line), C42B (human prostate cancer line C42B), L-02 (human normal hepatocytes), RWPE-1 (human prostate epithelial cells) and MCF-10A (human normal mammary epithelial cells) were obtained from National Collection of Authenticated Cell Cultures (Shanghai, China). A549/CDDP (A549 cell line resistant to cisplatin), C42B/ENZR (C42b cell line resistant to Enzalutamide), MCF-7/DOX (MCF-7 cell line resistant to doxorubicin), A2780/TAX (human ovarian cancer cell line A2780 resistant to taxol) and HCT-8/VCR (human ileocecum carcinoma cell lines HCT-8 resistant to vincristine) were kindly provided by Professor Junjian Wang and Professor Xingshu Li at Sun Yat-Sen University, China. […]
(§1) After 24 h, the medium containing different concentrations of tested compounds were added for another 48 h. […] The optical density was recorded with a microplate reader at 570 nm (Thermo Scientific, Varioskan LUX). All the experiments were repeated independently at least three times and the IC50 values were calculated […]

[2] = system: RWPE-1 (human prostate epithelial cells); assay: CCK-8 cytotoxicity, RWPE-1 normal cells; type: cell-based
Text: High cytotoxicity is one of the most limiting factors in chemotherapeutics.
(§2) A549 (non-small-cell-lung cancer cell line), Caski (human epithelial cervical cancer cell line), HepG2 (human liver carcinoma cell line), MCF-7 (human breast carcinoma cell line), C42B (human prostate cancer line C42B), L-02 (human normal hepatocytes), RWPE-1 (human prostate epithelial cells) and MCF-10A (human normal mammary epithelial cells) were obtained from National Collection of Authenticated Cell Cultures (Shanghai, China). […]
as §1
(§3) The fluorescence intensity enhancement (emission wavelength is 410 nm, excitation wavelength is 340 nm) was recorded every 60 s for 60 min in a multifunction microplate reader (Molecular Devices, Flex Station 3). […]

[3] = system: C42B/ENZR (C42b cell line resistant to Enzalutamide); assay: CCK-8 cytotoxicity, C42B/ENZR; type: cell-based; conditions: Homo sapiens; 48 h, CCK-8, Enzalutamide-resistant; read-out: IC50, Mean ± SE, C42B/ENZR
Protocol: Besides the high cytotoxicity, drug resistance is the other limiting factor of chemotherapeutics. In this study, the cytotoxicities of compound 14b towards five kinds of drug-resistant cancer cell lines were also evaluated. Except three kinds of cell lines that are resistant to three drugs commonly used in clinical practice, two kinds of cell lines that are resistant to MTAs were also evaluated.
as §2, §1, §3

tubulin = target: T1, tubulin (Sus scrofa, UniProt P02554); assay: in vitro tubulin polymerization inhibition assay; type: biochemical
T1 construct: purchased cytoskeleton, Inc. BK011P
T1 sequence (P02554 whole entry): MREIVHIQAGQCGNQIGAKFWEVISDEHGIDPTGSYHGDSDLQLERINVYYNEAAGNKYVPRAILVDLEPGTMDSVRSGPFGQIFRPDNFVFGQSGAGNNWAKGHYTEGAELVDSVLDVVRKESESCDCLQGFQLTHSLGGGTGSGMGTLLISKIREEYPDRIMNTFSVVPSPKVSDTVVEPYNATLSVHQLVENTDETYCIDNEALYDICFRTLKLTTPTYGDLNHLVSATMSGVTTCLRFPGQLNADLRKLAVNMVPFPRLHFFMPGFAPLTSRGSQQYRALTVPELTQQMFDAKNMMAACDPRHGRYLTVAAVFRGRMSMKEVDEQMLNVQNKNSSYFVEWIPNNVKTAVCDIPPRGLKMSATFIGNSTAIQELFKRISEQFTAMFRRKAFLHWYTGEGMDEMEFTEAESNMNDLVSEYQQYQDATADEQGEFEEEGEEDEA
T1 sequence (P02550 whole entry partner): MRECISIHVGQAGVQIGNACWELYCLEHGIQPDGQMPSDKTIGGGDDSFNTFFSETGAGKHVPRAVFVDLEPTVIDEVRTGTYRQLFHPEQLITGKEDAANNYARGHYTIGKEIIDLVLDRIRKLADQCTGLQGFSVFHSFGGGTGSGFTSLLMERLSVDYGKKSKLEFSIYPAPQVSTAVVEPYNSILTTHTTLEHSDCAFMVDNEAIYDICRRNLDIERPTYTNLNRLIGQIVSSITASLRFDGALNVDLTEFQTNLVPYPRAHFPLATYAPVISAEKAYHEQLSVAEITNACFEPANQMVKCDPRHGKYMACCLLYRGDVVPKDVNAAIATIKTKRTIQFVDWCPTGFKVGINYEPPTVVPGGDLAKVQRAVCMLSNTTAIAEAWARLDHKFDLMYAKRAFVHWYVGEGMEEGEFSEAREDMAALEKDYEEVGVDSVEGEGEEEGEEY
Protocol: Tubulin–microtubule homeostasis is crucial for cell mitosis.
Figure 2 Effect of compound 14b on tubulin. […] The experiments were performed at least three times, and representative images are shown. Scale bars are 10 μm. […] The backbone of tubulin is shown in ribbon representation (α-tubulin, yellow; β-tubulin, green). […] The data were shown as mean ± SE (standard error) of at least three independent experiments.
S Ⅳ. Biological evaluation methods
The cells grown in logarithmical phase were seeded in 96-well plates with the density of 5×10^3/well.
After 24 h, the medium containing different concentrations of tested compounds were added for another 48 h. Then, CCK-8 reagents were added to cells and continued to culture for 2 h. The optical density was recorded with a microplate reader at 570 nm (Thermo Scientific, Varioskan LUX). All the experiments were repeated independently at least three times and the IC50 values were calculated […]
S2. In vitro tubulin polymerization inhibition assay
The in vitro tubulin polymerization inhibition assay was conducted according to the manufacturer ’s instruction (cytoskeleton, cat. no. BK011P). Briefly, 5 μL of the tested compounds at the indicated

[4] = system: five kinds of human cancer cell lines (A549, Caski, HepG2, C42B, MCF-7); assay: CCK-8 assay, panel of five human cancer cell lines; type: cell-based; conditions: 48 h, read-out: IC50 values, range over five human cancer cell lines

COc1ccc(C(=O)c2ccc3c(ccn3C)c2)c2c1C=CC(C)(C)O2 [compound 14b, (5-methoxy-2,2-dimethyl-2H-chromen-8-yl)(1-methyl-1H-indol-5-yl)methanone]
IC50 ([1]; Homo sapiens, Hepatocyte, 48 h, CCK-8, normal cells, read-out: IC50, Mean ± SE, L-02): 1260 ± 214 nM
Selectivity Ratio ([1]; IC50 L-02 / IC50 Hep-G2): 16.97
IC50 ([2]; Homo sapiens, RWPE-1, 48 h, CCK-8, normal cells, read-out: IC50, Mean ± SE, RWPE-1): 3698 ± 36 nM
Selectivity Ratio ([2]; IC50 RWPE-1 / IC50 C42B): 72.51
IC50 [3]: 42 ± 11 nM
effect on tubulin polymerization (tubulin; 5 μM, Figure 2A,B): inhibited tubulin polymerization in a colchicine-like manner
IC50 (tubulin; in vitro, area under the curve): 2070 ± 150 nM
IC50 [4]: 22 to 74 nM
